Laboratory results: paper PMC7870075, “Physicochemical properties and formulation development of a novel compound inhibiting Staphylococcus aureus biofilm formation” (PLoS ONE, 2021)
Converted amounts (≈) assume the structure as drawn. “And” between values parts separate entries of the source, which are not always exact repeats. Equal values may be shown once. Read-outs that look alike come from different tables or passages of the source.

Legend:
[1] = Mammalian cell cytotoxicity assay (CCK-8); format: cell-based, human; conditions: human, TZM-bL cells, 24 h
Procedure: (§1) Cell cytotoxicity assay was performed by following previous protocols with minor revision. TZM-bL cells which is a HeLa cell derivative (a generous gift from Dr. Xiao Heng, University of Missouri) (100 μL, 5,000 cells per well) were grown in Dulbecco’s modified Eagle’s medium (DMEM) (Life Technologies, Grand Island, NY, USA) with 10% fetal bovine serum for 24 h at 37°C in 5% CO2 in duplicates. Supernatant was replaced with 100 μL fresh medium with different concentrations of CCG-211790 to culture the cells for 24 h at 37°C in 5% CO2. DMSO was used as the vehicle control. Ten μL of Cell Counting Kit-8 (CCK-8) solution (APExBIO, Houston, TX, USA) was added to each well of the plate. After 2 h, the plate was read at 450 nm by using a BioTek spectrophotometer (BioTek, Winooski, VT, USA). One hundred percent viability was set at the absorbance of the cells treated with only the vehicle (DMSO). The assay was performed twice in duplicates to obtain the mean and standard deviation of cell viability. The cell viability (survival rate) was calculated with the equation: Survival rate (%) = [(As—Ab) / (Ac—Ab)] x 100, As = Absorbance of tested compound (Absorbance of well containing cells, culture medium, CCK-8 and compound), Ab = Absorbance of blank (Absorbance of well containing culture medium and CCK-8), Ac = Absorbance of control (Absorbance of well containing cell, DMSO and CCK-8).

TZM-bL cells = experiment: Mammalian cell cytotoxicity assay (CCK-8); format: cell-based, human; conditions: for Cell viability %: single samples
Procedure: as §1

Solubility in water = format: physicochemical
Procedure: The concentration of CCG-211790 in deionized water or aqueous solutions was determined using an Agilent series 1100 HPLC system (Agilent Technologies, Santa Clara, CA, USA) equipped with diode array detector. Sample separation was carried out with a Kinetex C18 column (75 mm × 3 mm, particle size 2.6 μm, Phenomenex Inc., Torrance, CA, USA). The mobile phase of acetonitrile-water (50:50, v/v) was used for chromatographic separation. The flow rate was set to 0.5 mL/min, column temperature to 35°C. The absorption was measured at wavelength 255 nm. The injection volume was 30 μL. The retention time of CCG-211790 was 4.9 min. The method detection limit was 0.02 mg/L. Calibration curves were established giving a correlation coefficient >0.9900. To determine the solubility of CCG-211790 in water, an excess amount of CCG-211790 powder was added into water. […] The sample aliquots (0.5 mL each) were centrifuged at 20,000 ×g for 5 min with Amicon Ultra-0.5 Centrifugal Filter Units (MWCO 3000 Da, Millipore Corp., Billerica, MA, USA). Solutions passing through the filter were diluted 2-fold with acetonitrile and CCG-211790 concentration in water was determined by HPLC analysis. The experiment was run in triplicate with mean values and standard deviations being reported.

[2] = Solubility in organic solvents; format: physicochemical; conditions: thermodynamic from solid
Procedure: The concentration of CCG-211790 in organic solvents was carried out on a LabTech BlueStar plus UV-Vis spectrophotometer (Hopkinton, MA, USA) using dimethylformamide (DMF) as a reference solvent. UV-Vis absorption spectra were recorded in a wavelength range from 200–500 nm with samples placed in a quartz cuvette. CCG-211790 concentrations in organic solvents were determined based on the absorption of CCG-211790 at characteristic wavelength of 314 nm. Calibration curves were established giving a correlation coefficient more than 0.999. The solubility of CCG-211790 in organic solvents were also determined. CCG-211790 bulk powder was added in excess to 0.1–1 mL of an organic solvent. After ultrasonication for 30 min and incubation for 24 h at room temperature on a shaking platform to reach the saturation status, sample aliquots (0.5 mL) were centrifuged at 10,400 ×g for 10 min, and 10 μL of supernatant was diluted 500–50,000-fold with dimethylformamide (DMF). The saturation solubility of CCG-211790 in various organic solvents was determined via ultraviolet-visible spectrophotometry (UV-Vis) with DMF as the reference solvent.

[3] = TZM-bL cells (HeLa cell derivative), single samples, read-out: Cell viability %
[4] = TZM-bL cells (HeLa cell derivative), read-out: Mean of cell viability

solubility class according to the definition of US Pharmacopeia (Solubility in water; solubility less than 100 μg/mL): practically insoluble
solubility at 20 h (Solubility in water; thermodynamic from solid, room temperature, 20 h, HPLC): 0.038 ± 0.01 µg/mL (≈ 9.88e-05 mM)
solubility at 24 h ([2]; oil or lipid, Canola oil, room temperature, read-out: Solubility): 24.7 mg/mL (≈ 64.3 mM)
solubility at 24 h ([2]; oil or lipid, Coconut oil, room temperature, read-out: Solubility): 37.2 mg/mL (≈ 96.8 mM)
solubility at 24 h ([2]; oil or lipid, Oleic acid, room temperature, read-out: Solubility): 24.1 mg/mL (≈ 62.7 mM)
solubility at 24 h ([2]; oil or lipid, Olive oil, room temperature, read-out: Solubility): 24.3 mg/mL (≈ 63.2 mM)
solubility at 24 h ([2]; oil or lipid, Peanut oil, room temperature, read-out: Solubility): 22.3 mg/mL (≈ 58 mM)
solubility at 24 h ([2]; oil or lipid, Safflower oil, room temperature, read-out: Solubility): 22.7 mg/mL (≈ 59 mM)
solubility at 24 h ([2]; oil or lipid, Sesame oil, room temperature, read-out: Solubility): 22.7 mg/mL (≈ 59 mM)
solubility at 24 h ([2]; oil or lipid, Sunflower oil, room temperature, read-out: Solubility): 20 mg/mL (≈ 52 mM)
solubility at 24 h ([2]; oil or lipid, range over the edible oils of Table 2, read-out: solubility in edible oils): 20 to 37.2 mg/mL (≈ 52 to 96.8 mM)
solubility at 24 h ([2]; organic solvent or mixture, Acetonitrile, room temperature, read-out: Solubility): 57.6 mg/mL (≈ 150 mM)
solubility at 24 h ([2]; organic solvent or mixture, Dimethyl sulfoxide, room temperature, read-out: Solubility): 66.7 mg/mL (≈ 174 mM)
solubility at 24 h ([2]; organic solvent or mixture, Dimethylacetamide, room temperature, read-out: Solubility): 278 mg/mL (≈ 724 mM)
solubility at 24 h ([2]; organic solvent or mixture, Dimethylformamide, room temperature, read-out: Solubility): 215 mg/mL (≈ 560 mM)
solubility at 24 h ([2]; organic solvent or mixture, Ethanol, room temperature, read-out: Solubility): 18.2 mg/mL (≈ 47.3 mM)
solubility at 24 h ([2]; organic solvent or mixture, Glycerin, room temperature, read-out: Solubility): 1.3 mg/mL (≈ 3.38 mM)
solubility at 24 h ([2]; organic solvent or mixture, Isopropyl alcohol, room temperature, read-out: Solubility): 15.4 mg/mL (≈ 40.1 mM)
Compound: COc1ccc2c(c1)-c1nc(SCC(F)(F)F)n(C)c(=O)c1C(C)(C)C2 [CCG-211790, 9-Methoxy-3,5,5-trimethyl-2-((2,2,2-trifluoroethyl)thio)-5,6-dihydrobenzo[h]quinazolin-4(3H)-one]
viability at 24 h, 6.25 µM [1, 3]: 79.6%
viability at 24 h, 6.25 µM [1, 4]: 84.3%
viability at 24 h, 12.5 µM [1, 3]: 80.8%
viability at 24 h, 12.5 µM [1, 4]: 76.2%
viability at 24 h, 25 µM [1, 3]: 69%
viability at 24 h, 25 µM [1, 4]: 65.3%
viability at 24 h, 50 µM ([1]; TZM-bL cells (HeLa cell derivative), 50 µM, single samples, read-out: Cell viability %): 61.3%
viability at 24 h, 50 µM ([1]; TZM-bL cells (HeLa derivative), 50 μM, normalized to DMSO, read-out: cell survival rate (mean of cell viability)): 56.1 ± 5.3%
cytotoxic concentration (50 μM) as fold of the anti-biofilm IC50 (TZM-bL cells; 50 μM on TZM-bL cells vs biofilm IC50): about 39 fold
Cell viability % (TZM-bL cells; TZM-bL cells, 6.25 µM, 24 h): 86.99% and 84.77% and 85.92%
Cell viability % (TZM-bL cells; TZM-bL cells, 12.5 µM, 24 h): 82.11% and 70.18% and 71.70%
Cell viability % (TZM-bL cells; TZM-bL cells, 25 µM, 24 h): 69.05% and 56.68% and 66.50%
cell survival rate (mean of cell viability) (TZM-bL cells; TZM-bL cells, 50 μM, 24 h, normalized to DMSO): 56.05%
Cell viability % (TZM-bL cells; TZM-bL cells, 50 µM, 24 h): 57.46% and 48.66% and 56.82%
